Source: ChEMBL document CHEMBL4732037, “Drugging the undruggable: a computational chemist''s view of KRASG12C” (RSC Med Chem, 2021)

Experiments:
[1] = Lipophilicity, log D of compound; assay type: physicochemical; settings: octanol/water
[2] = Efflux ratio in human Caco2 cells; assay type: ADME, cell-based; settings: Caco-2

| logD [1] | efflux ratio [2] | SMILES |
| --- | --- | --- |
| 3 | – | C=CC(=O)N1CCN2c3c(cnc4cc(-c5c(O)cccc5F)c(Cl)cc34)NC(=O)[C@H]2C1 |
| 3 | 0.9 | C=CC(=O)N1CCN2c3c(cnc4cc(-c5c(O)cccc5F)c(Cl)cc34)N(C)C(=O)[C@H]2C1 |
